Tests used:
[1] = Screening of water-soluble polymers / alkylammonium cations: recrystallization of supersaturated taxifolin/β-CD complex solution; assay type: physicochemical; settings: taxifolin:choline/carnitine cations ratio 1:0.85, 96 h
Experimental: In order to examine which water-soluble polymers are particularly suitable for improving the stability and dissolution capacity of flavonoid-cyclodextrin complexes, a screening was carried out. For this purpose, first, a supersaturated taxifolin/β-CD complex solution was prepared by adding an excess of equimolar taxifolin/β-CD complex and subsequent heating to 35° C. and filtering off.

[2] = Stability examination taxifolin: color change of aqueous solutions; assay type: physicochemical; settings: stored open, protected from light, room temperature
Experimental: In order to investigate the stability of the flavonoid taxifolin and the influence of thiamine and β-CD, experiments were also carried out in this regard. Since taxifolin forms red-brown oligomers upon breakdown, the detection is quite straightforward to carry out. Method: Three aqueous solutions were prepared in beakers containing I) 100 mg taxifolin in 150 ml distilled water II) 100 mg of Taxifolin+13 mg of thiamine HCl in 150 ml distilled water and III) 100 mg taxifolin+13 mg of thiamine HCl+373 mg of β-CD in distilled water. Samples were stored open and protected from light at room temperature and the color of the solution was checked every 24 h.

Row | Time of color change ([2]; aqueous solution) [h] | Color of solution [2] | SMILES | Recrystallization after 96 h [1] | Remark (change versus reference solution) [1]
1 |  |  | C[N+](C)(C)C[C@H](O)CC(=O)[O-].O=C(O)C(O)C(O)C(=O)O [L-Carnitine tartrate, L-carnitine tartrate] | Distinct | No change
2 | 48 | Red-brown | O=C1c2c(O)cc(O)cc2O[C@H](c2ccc(O)c(O)c2)[C@H]1O [Taxifolin reference, taxifolin] |  | 

From patent US20230233513A1, “TAXIFOLIN FORMULATION COMPRISING THIAMINE” (Evanium Healthcare GmbH, priority 2020, published 2023)
